Results: US20240207308A1, “METHOD FOR CULTURING DENDRITIC CELLS” (NANOFAENTECH CO., LTD., priority 2021, published 2024)

Columns and labels:
Format in all cases: cell-based, mouse
spleen dendritic cells [1] = assay: Distribution / clustering of cultured spleen dendritic cells by confocal microscope (DIC); conditions: 200 μg/mL added, dendritic cells 2×10^5/mL, cultured 6 hours
Description: Mouse spleen dendritic cells were obtained by adding EDTA-BSS (Balanced Salt Solution) buffer and collagenase solution (DMEM containing 100 units of collagenase type IV, medium containing low glucose) to spleens of female C57BL/6 mice and cutting it with surgical scissors, mixing the same with 6 mL of collagenase treatment solution, and incubating the mixture for 30 minutes. The separated whole spleen tissue was filtered using a 70 μm cell strainer (Falcon), followed by centrifugation at 1800 rpm for 5 minutes thus to separate the cells. Red blood cells were removed by adding red blood cell lysis buffer (Sigma-Aldrich) to the cells and washed twice with RPMI-1640 medium containing 10% fetal bovine serum (FBS). Dendritic cells were reacted with CD11c^+ antibody-bound microbeads and isolated using CD11c Microbeads Ultrapure ([…] Biotec, USA). In FIG. 1, primary dendritic cells isolated from the spleen were dispensed in a 48-well plate and cultured for 24 hours in a cell chamber maintained at 37° C. and 5% CO2, and the extent of clustering in which cells were distributed or gathered into single cells was evaluated. […] The number of single cells and intercellular clusters was measured using ImageJ software (NIH, Bethesda). * indicates statistical significance as P<0.05 or less compared with 0 h. […]

spleen dendritic cells [2] = assay: Fluorescence staining of CD86 in spleen dendritic cells, confocal microscope; conditions: 24 hours
Description: In FIG. 11, culturing spleen dendritic cells (2×10^5/mL) and the prepared peptides were added at a concentration of 200 μg/mL, respectively, and after 6 hours, the expression level of CD86 using a PE-conjugated anti-CD86 antibody (eBioscience) was measured through a confocal microscope after fluorescence staining. After culturing spleen primary dendritic cells for a certain period of time, intracellular CD86, F-actin and nuclear staining was implemented. Expression of actin was stained with FITC-conjugated phalloidin (eBioscience), and nuclear staining was conducted with Hoechst 33342 (Sigma-Aldrich). For this purpose, cells cultured in a 48-well plate were placed in a 4% paraformaldehyde fixing solution, and then fixed at room temperature for 20 minutes.
Then, after washing twice with phosphate buffered saline solution, it was permeabilized with 0.1% Triton X-100 (Sigma-Aldrich) solution at room temperature for 5 minutes and washed twice with phosphate buffered saline solution. In order to remove non-specific staining, after reacting with 0.2% bovine serum albumin (Sigma-Aldrich) solution at room temperature for 20 minutes, it was washed twice with phosphate buffered saline solution. After that, the anti-CD86 antibody and phalloidine were diluted in 0.2% bovine serum albumin solution at a ratio of 1:40 and reacted for 40 minutes, washed 3 times with Tris buffer, placed on a slide glass, followed by counter-staining with Hoechst 33342 solution for nuclear staining of cells. After sealing with a cover glass, the cells were observed using a confocal laser microscope (K1 nanoscope).
In FIG. 26, spleen dendritic cells (2×10^5/mL) were dispensed in a 48-well plate, and linker peptides were each added at a concentration of 400 μg/mL, followed by culturing for 24 hours. Activation of spleen dendritic cells was induced by adding 1 μg/mL of LPS to the culture medium. The cultured cells were placed in a 4% paraformaldehyde fixing solution and fixed at room temperature for 20 minutes. After fluorescence staining using PE-conjugated anti-CD86 antibody (eBioscience), it was measured with a confocal microscope (K1 Nanoscope, Korea). Intracellular actin expression was stained with FITC-conjugated phalloidin (eBioscience), and nuclear staining was conducted with Hoechst 33342 (Sigma-Aldrich). CD86 antibody and phalloidin were diluted 1:40 in 0.2% bovine serum albumin solution and used.

[3] = test system: spleen T cells from Balb/c mice; assay: Mixed lymphocyte reaction: proliferation of CFSE-stained allogeneic T cells co-cultured with spleen dendritic cells; conditions: dendritic cells cultured with the substance and activated with LPS or poly (I:C), co-culture 1:20, 4 days
Description: (§1) Since the main role of activated dendritic cells is to induce antigen-specific T-cell activation and proliferation according to the stimulatory properties, it was investigated whether self-activated dendrite cells after culturing and dendritic cells activated with LPS after culturing with addition of peptides can induce T cell proliferation by mixed lymphocyte reaction (MLR) test. The spleen dendritic cells isolated from C57B/L6 mice were self-activated for 24 hours, otherwise, when cultured with addition of peptides or fibronectin, the cells were treated with LPS and activated. Spleen T cells from Balb/c mice were isolated using a CD4^+/CD8^+ T cell isolation kit (Miltenyi Biotec, Bergisch-Gladbach, Germany) and MACS column (Miltenyi Biotec), followed by 10 μM CFSE staining (Molecular Probes; Thermo Fisher Scientific Inc., USA). The activated dendritic cells and CFSE-stained T cells were co-cultured at a ratio of 1:20 for 4 days, and the T cell proliferation level was measured as a percentage of cells with decreased CFSE. […] In FIG. 22, the amount of cytokines secreted after co-culture of spleen dendritic cells and T cells for 4 days was measured by ELISA method. […]

[4] = test system: spleen dendritic cells and T cells; assay: ELISA of cytokines after 4 days co-culture of spleen dendritic cells and allogeneic T cells; conditions: dendritic cells activated with LPS and poly (I:C), co-culture 4 days
Description: as §1

spleen dendritic cells [5] = assay: Viability of spleen dendritic cells by 7-AAD staining; conditions: 6 hours of culture
Description: Dendritic cells are characterized by rapid cell death during culture while self-activation occurs. In addition to the inhibition of self-activation, it was measured whether the viability of dendritic cells is changed. Cell viability was determined by staining of culturing cells with 7-AAD and measuring the number of cells not stained with the above fluorescent substance.

In the case of fibronectin, the “cell aggregation (distribution of cells)” value (spleen dendritic cells [1]) is reported as “significantly reduced”, the CD86-expressing cells (spleen dendritic cells [2]; with 1 μg/mL LPS) is reported as “almost not measured” and the CD86-expressing cells (spleen dendritic cells [2]; without LPS, linker peptides 400 μg/mL) is reported as “almost not observed”. The “T cell proliferation (cells with decreased CFSE)” value [3] was “not inducing T cell proliferation”, the “secretion of IFN-γ, IL-6, TNF-α and IL-5” value [4] was “extremely low” and the “number of 7-AAD-negative surviving cells” value (spleen dendritic cells [5]) was “significantly increased”.
